# From PubChem BioAssay (NCI)
#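 Cells were grown in 96-well plates and exposed to each compound for 48 hours at five concentrations; endpoints were interpolated linearly between bracketing concentrations, or set to the highest concentration if not reached. TGI is the concentration that stops growth completely.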
# Key:
# Experiment in all cases: growth of human tumour cells (NCI), 48 h
# MCF7 breast = tested on: MCF7 breast
# OVCAR-5 ovarian = tested on: OVCAR-5 ovarian
# EKVX NSCLC = tested on: EKVX NSCLC
# NCI-H226 lung = tested on: NCI-H226 lung
# SW-620 colon = tested on: SW-620 colon
# A498 renal = tested on: A498 renal
# MOLT-4 leukemia = tested on: MOLT-4 leukemia
# HOP-92 NSCLC = tested on: HOP-92 NSCLC
# LOX IMVI melanoma = tested on: LOX IMVI melanoma
# SK-MEL-2 melanoma = tested on: SK-MEL-2 melanoma
# SF-539 CNS = tested on: SF-539 CNS
# UACC-257 melanoma = tested on: UACC-257 melanoma
# M14 melanoma = tested on: M14 melanoma
# SF-268 CNS = tested on: SF-268 CNS
# KM12 colon = tested on: KM12 colon
# SK-MEL-28 melanoma = tested on: SK-MEL-28 melanoma
# PC-3 prostate = tested on: PC-3 prostate
# COLO 205 colon = tested on: COLO 205 colon
# DU-145 prostate = tested on: DU-145 prostate
# NCI-H23 lung = tested on: NCI-H23 lung
# IGROV1 ovarian = tested on: IGROV1 ovarian
# MDA-MB-231 breast = tested on: MDA-MB-231 breast
# MDA-MB-435 = tested on: MDA-MB-435
# MALME-3M melanoma = tested on: MALME-3M melanoma
# T-47D breast = tested on: T-47D breast
# SNB-19 CNS = tested on: SNB-19 CNS
# HCT-116 colon = tested on: HCT-116 colon
# UO-31 renal = tested on: UO-31 renal
# HL-60(TB) leukemia = tested on: HL-60(TB) leukemia
# NCI-H522 lung = tested on: NCI-H522 lung
# SN12C renal = tested on: SN12C renal
# HOP-62 NSCLC = tested on: HOP-62 NSCLC
# OVCAR-3 ovarian = tested on: OVCAR-3 ovarian
# RXF 393 renal = tested on: RXF 393 renal
# SK-OV-3 ovarian = tested on: SK-OV-3 ovarian
# HCT-15 colon = tested on: HCT-15 colon
# U251 CNS = tested on: U251 CNS
# SK-MEL-5 melanoma = tested on: SK-MEL-5 melanoma
# ACHN renal = tested on: ACHN renal
# HCC-2998 colon = tested on: HCC-2998 colon
# CAKI-1 renal = tested on: CAKI-1 renal
# OVCAR-8 ovarian = tested on: OVCAR-8 ovarian
# TK-10 renal = tested on: TK-10 renal
# CCRF-CEM leukemia = tested on: CCRF-CEM leukemia
# 786-0 renal = tested on: 786-0 renal
# HT29 colon = tested on: HT29 colon
# UACC-62 melanoma = tested on: UACC-62 melanoma
# RPMI-8226 leukemia = tested on: RPMI-8226 leukemia
# A549 NSCLC = tested on: A549 NSCLC
# BT-549 breast = tested on: BT-549 breast
# NCI/ADR-RES ovarian = tested on: NCI/ADR-RES ovarian
# SR leukemia = tested on: SR leukemia
# OVCAR-4 ovarian = tested on: OVCAR-4 ovarian
# K-562 leukemia = tested on: K-562 leukemia
# NCI-H460 lung = tested on: NCI-H460 lung
# MDA-N = tested on: MDA-N
# SNB-75 CNS = tested on: SNB-75 CNS
# HS 578T breast = tested on: HS 578T breast
# SF-295 CNS = tested on: SF-295 CNS
compound,measurement,setting,value
CCCCCCc1cc2cc(C(=O)Nc3ccccc3)c(=N)oc2cc1O,TGI,MCF7 breast,> 100 µM
same,TGI,OVCAR-5 ovarian,> 100 µM
same,TGI,EKVX NSCLC,> 100 µM
same,TGI,NCI-H226 lung,> 100 µM
same,TGI,SW-620 colon,> 100 µM
same,TGI,A498 renal,> 100 µM
same,TGI,MOLT-4 leukemia,8.79 µM
same,TGI,HOP-92 NSCLC,> 100 µM
same,TGI,LOX IMVI melanoma,12.5 µM
same,TGI,SK-MEL-2 melanoma,14.7 µM
same,TGI,SF-539 CNS,> 48.6 µM
same,TGI,UACC-257 melanoma,> 100 µM
same,TGI,M14 melanoma,> 29.4 µM
same,TGI,SF-268 CNS,> 100 µM
same,TGI,KM12 colon,8.48 µM
same,TGI,SK-MEL-28 melanoma,> 100 µM
same,TGI,PC-3 prostate,> 30.3 µM
same,TGI,COLO 205 colon,> 100 µM
same,TGI,DU-145 prostate,> 100 µM
same,TGI,NCI-H23 lung,10.6 µM
same,TGI,IGROV1 ovarian,> 100 µM
same,TGI,MDA-MB-231 breast,> 100 µM
same,TGI,MDA-MB-435,14.1 µM
same,TGI,MALME-3M melanoma,5.6 µM
same,TGI,T-47D breast,> 47.1 µM
same,TGI,SNB-19 CNS,> 73.8 µM
same,TGI,HCT-116 colon,6.59 µM
same,TGI,UO-31 renal,12.7 µM
same,TGI,HL-60(TB) leukemia,> 100 µM
same,TGI,NCI-H522 lung,6.02 µM
same,TGI,SN12C renal,6.97 µM
same,TGI,HOP-62 NSCLC,11.8 µM
same,TGI,OVCAR-3 ovarian,5.1 µM
same,TGI,RXF 393 renal,> 100 µM
same,TGI,SK-OV-3 ovarian,> 26.5 µM
same,TGI,HCT-15 colon,> 100 µM
same,TGI,U251 CNS,> 33.6 µM
same,TGI,SK-MEL-5 melanoma,8.41 µM
same,TGI,ACHN renal,> 100 µM
same,TGI,HCC-2998 colon,20.8 µM
same,TGI,CAKI-1 renal,> 100 µM
same,TGI,OVCAR-8 ovarian,> 49.6 µM
same,TGI,TK-10 renal,> 100 µM
same,TGI,CCRF-CEM leukemia,> 37.9 µM
same,TGI,786-0 renal,> 35.8 µM
same,TGI,HT29 colon,> 32.1 µM
same,TGI,UACC-62 melanoma,40.1 µM
same,TGI,RPMI-8226 leukemia,> 100 µM
same,TGI,A549 NSCLC,> 37.5 µM
same,TGI,BT-549 breast,> 100 µM
same,TGI,NCI/ADR-RES ovarian,> 100 µM
same,TGI,SR leukemia,> 26.3 µM
same,TGI,OVCAR-4 ovarian,> 60.9 µM
same,TGI,K-562 leukemia,> 100 µM
same,TGI,NCI-H460 lung,> 100 µM
same,TGI,MDA-N,> 34.3 µM
same,TGI,SNB-75 CNS,> 100 µM
same,TGI,HS 578T breast,20 µM
same,TGI,SF-295 CNS,> 100 µM
CN(C)CCCN1CCC2(CCC(C(C)(C)C)CC2)CC1,TGI,MCF7 breast,3.07 µM
same,TGI,OVCAR-5 ovarian,9.08 µM
same,TGI,EKVX NSCLC,19.4 µM
same,TGI,NCI-H226 lung,19.9 µM
same,TGI,SW-620 colon,7.87 µM
same,TGI,A498 renal,4.6 µM
same,TGI,MOLT-4 leukemia,5.74 µM
same,TGI,HOP-92 NSCLC,10.1 µM
same,TGI,LOX IMVI melanoma,3.22 µM
same,TGI,SK-MEL-2 melanoma,3.26 µM
same,TGI,SF-539 CNS,3.89 µM
same,TGI,UACC-257 melanoma,2.76 µM
same,TGI,M14 melanoma,3.46 µM
same,TGI,SF-268 CNS,7.29 µM
same,TGI,KM12 colon,6.18 µM
same,TGI,SK-MEL-28 melanoma,3.36 µM
same,TGI,PC-3 prostate,10.8 µM
same,TGI,COLO 205 colon,3.04 µM
same,TGI,DU-145 prostate,19.3 µM
same,TGI,NCI-H23 lung,21.7 µM
same,TGI,IGROV1 ovarian,9.03 µM
same,TGI,MDA-MB-231 breast,3.91 µM
same,TGI,MDA-MB-435,1.19 µM
same,TGI,MALME-3M melanoma,3.4 µM
same,TGI,T-47D breast,3.99 µM
same,TGI,SNB-19 CNS,11.8 µM
same,TGI,HCT-116 colon,3.19 µM
same,TGI,UO-31 renal,3.4 µM
same,TGI,HL-60(TB) leukemia,2.23 µM
same,TGI,NCI-H522 lung,6.07 µM
same,TGI,SN12C renal,20.6 µM
same,TGI,HOP-62 NSCLC,4.91 µM
same,TGI,OVCAR-3 ovarian,10.9 µM
same,TGI,RXF 393 renal,4.13 µM
same,TGI,SK-OV-3 ovarian,22.8 µM
same,TGI,HCT-15 colon,9.55 µM
same,TGI,U251 CNS,3.64 µM
same,TGI,SK-MEL-5 melanoma,3.02 µM
same,TGI,ACHN renal,18.8 µM
same,TGI,HCC-2998 colon,0.417 µM
same,TGI,CAKI-1 renal,7.55 µM
same,TGI,OVCAR-8 ovarian,16.5 µM
same,TGI,TK-10 renal,3.34 µM
same,TGI,CCRF-CEM leukemia,4.82 µM
same,TGI,786-0 renal,3.09 µM
same,TGI,HT29 colon,1.7 µM
same,TGI,UACC-62 melanoma,3.33 µM
same,TGI,RPMI-8226 leukemia,10.5 µM
same,TGI,A549 NSCLC,12.1 µM
same,TGI,BT-549 breast,24.5 µM
same,TGI,NCI/ADR-RES ovarian,19.5 µM
same,TGI,SR leukemia,4.85 µM
same,TGI,OVCAR-4 ovarian,17.3 µM
same,TGI,K-562 leukemia,0.962 µM
same,TGI,NCI-H460 lung,2.36 µM
same,TGI,MDA-N,2.44 µM
same,TGI,SNB-75 CNS,4.11 µM
same,TGI,HS 578T breast,4.89 µM
same,TGI,SF-295 CNS,3.96 µM
